# Experimental data from patent publication US12077503B2, “Substituted cyclic amides and their use as herbicides” (FMC CORPORATION, priority 2015, dated 2024).
# Columns and labels:
# Type in all cases: in vivo
# Kochia (Kochia scoparia) [1] = test: Test A preemergence; conditions: Bassia scoparia, pre-emergence, 240 h, 0 to 100 scale where 0 is no effect and 100 is complete control, read-out: Kochia plant response rating
# How it was run: (§1)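 Preemergence directed soil spray on seeded pots, or postemergence application to plants 2–10 cm, one- to two-leaf. Solvent mixture non-phytotoxic, with surfactant. Scored ~10 d later, visually, 0–100 vs untreated.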
# [2] = tested on: barnyardgrass (Echinochloa crus-galli); test: Test A preemergence; conditions: Echinochloa crus-galli, pre-emergence, 240 h, 0 to 100 scale where 0 is no effect and 100 is complete control, read-out: Barnyardgrass plant response rating
# How it was run: as §1
# [3] = tested on: giant foxtail (Setaria faberii); test: Test A preemergence; conditions: Setaria faberi, pre-emergence, 240 h, 0 to 100 scale where 0 is no effect and 100 is complete control, read-out: Foxtail, Giant plant response rating
# How it was run: as §1
# [4] = tested on: pigweed (Amaranthus retroflexus); test: Test A preemergence; conditions: Amaranthus retroflexus, pre-emergence, 240 h, 0 to 100 scale where 0 is no effect and 100 is complete control, read-out: Pigweed plant response rating
# [5] = tested on: ragweed (common ragweed, Ambrosia elatior); test: Test A preemergence; conditions: Ambrosia artemisiifolia, pre-emergence, 240 h, 0 to 100 scale where 0 is no effect and 100 is complete control, read-out: Ragweed plant response rating
# How it was run: as §1
# [6] = tested on: ryegrass, Italian (Italian ryegrass, Lolium multiflorum); test: Test A preemergence; conditions: Lolium multiflorum, pre-emergence, 240 h, 0 to 100 scale where 0 is no effect and 100 is complete control, read-out: Ryegrass, Italian plant response rating
# How it was run: as §1
# [7] = tested on: Galium (catchweed bedstraw, Galium aparine); test: Test A postemergence; conditions: Galium, post-emergence, 240 h, read-out: Galium plant response rating (0 to 100 scale)
# How it was run: as §1
# Kochia (Kochia scoparia) [8] = test: Test A postemergence; conditions: Bassia scoparia, post-emergence, 240 h, read-out: Kochia plant response rating (0 to 100 scale)
# How it was run: as §1
# [9] = tested on: barnyardgrass (Echinochloa crus-galli); test: Test A postemergence; conditions: Echinochloa crus-galli, post-emergence, 240 h, read-out: Barnyardgrass plant response rating (0 to 100 scale)
# How it was run: as §1
# [10] = tested on: blackgrass (Alopecurus myosuroides); test: Test A postemergence; conditions: Alopecurus myosuroides, post-emergence, 240 h, read-out: Blackgrass plant response rating (0 to 100 scale)
# How it was run: as §1
# corn (Zea mays) = test: Test A postemergence; conditions: Zea mays, post-emergence, 240 h, read-out: Corn plant response rating (0 to 100 scale)
# How it was run: as §1
# [11] = tested on: giant foxtail (Setaria faberii); test: Test A postemergence; conditions: Setaria faberi, post-emergence, 240 h, read-out: Foxtail, Giant plant response rating (0 to 100 scale)
# How it was run: as §1
# [12] = tested on: pigweed (Amaranthus retroflexus); test: Test A postemergence; conditions: Amaranthus retroflexus, post-emergence, 240 h, read-out: Pigweed plant response rating (0 to 100 scale)
# How it was run: as §1
# [13] = tested on: ragweed (common ragweed, Ambrosia elatior); test: Test A postemergence; conditions: Ambrosia artemisiifolia, post-emergence, 240 h, read-out: Ragweed plant response rating (0 to 100 scale)
# How it was run: as §1
# [14] = tested on: ryegrass, Italian (Italian ryegrass, Lolium multiflorum); test: Test A postemergence; conditions: Lolium multiflorum, post-emergence, 240 h, read-out: Ryegrass, Italian plant response rating (0 to 100 scale)
# How it was run: as §1
# [15] = tested on: wheat (Triticum aestivum); test: Test A postemergence; conditions: Triticum aestivum, post-emergence, 240 h, read-out: Wheat plant response rating (0 to 100 scale)
# How it was run: as §1
# [16] = tested on: barnyardgrass (Echinochloa crus-galli); test: Test B flooded paddy test; conditions: Echinochloa crus-galli, 250 g ai/ha, Flood; 0 to 100 scale where 0 is no effect and 100 is complete control; read-out: Barnyardgrass plant response rating
# How it was run: (§2)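 Greenhouse paddy pots with 2-leaf stage plants received compound by direct addition to floodwater 3 cm deep, kept at that level. Scored visually at 13–15 d versus controls (0 no effect; 100 complete control).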
# [17] = tested on: ducksalad (Heteranthera limosa); test: Test B flooded paddy test; conditions: Heteranthera limosa, 250 g ai/ha, Flood; 0 to 100 scale where 0 is no effect and 100 is complete control; read-out: Ducksalad plant response rating
# How it was run: as §2
# rice (Oryra sativa) = test: Test B flooded paddy test; conditions: Oryza sativa, 250 g ai/ha, Flood; 0 to 100 scale where 0 is no effect and 100 is complete control; read-out: Rice plant response rating
# How it was run: as §2
# [18] = tested on: sedge, umbrella (small-flower umbrella sedge, Cyperus difformis); test: Test B flooded paddy test; conditions: Cyperus difformis, 250 g ai/ha, Flood; 0 to 100 scale where 0 is no effect and 100 is complete control; read-out: Sedge, Umbrella plant response rating
# How it was run: as §2
# [19] = 125 g ai/ha, preemergence, visual injury rating, approximately 10 d
# [20] = 125 g ai/ha, postemergence, visual injury vs untreated controls after approx. 10 d, 0 = no effect, 100 = complete control
# [21] = Postemergence, 31 g ai/ha, 0 is no effect, 100 is complete control
smiles,measurement,setting,value
CN1C[C@H](c2ccc(C#N)c(F)c2)[C@@H](C(=O)Nc2ccccc2F)C1=O [Compound 1190],pest or weed control at 31 g/ha,"Kochia (Kochia scoparia) [1]; 31 g ai/ha, Preemergence",0%
same,pest or weed control at 125 g/ha,Kochia (Kochia scoparia) [1]; [19],0%
same,pest or weed control at 31 g/ha,"[2]; 31 g ai/ha, Preemergence",50%
same,pest or weed control at 125 g/ha,[2]; [19],90%
same,pest or weed control at 31 g/ha,"[3]; 31 g ai/ha, Preemergence",60%
same,pest or weed control at 125 g/ha,[3]; [19],90%
same,pest or weed control at 31 g/ha,"[4]; 31 g ai/ha, Preemergence",0%
same,pest or weed control at 125 g/ha,[4]; [19],0%
same,pest or weed control at 31 g/ha,"[5]; 31 g ai/ha, Preemergence",0%
same,pest or weed control at 125 g/ha,[5]; [19],0%
same,pest or weed control at 31 g/ha,"[6]; 31 g ai/ha, Preemergence",0%
same,pest or weed control at 125 g/ha,[6]; [19],0%
same,pest or weed control at 125 g/ha,[7]; [20],20%
same,pest or weed control at 31 g/ha,[7]; [21],0%
same,pest or weed control at 125 g/ha,Kochia (Kochia scoparia) [8]; [20],0%
same,pest or weed control at 31 g/ha,Kochia (Kochia scoparia) [8]; [21],0%
same,pest or weed control at 125 g/ha,[9]; [20],60%
same,pest or weed control at 31 g/ha,[9]; [21],0%
same,pest or weed control at 125 g/ha,[10]; [20],0%
same,pest or weed control at 31 g/ha,[10]; [21],0%
same,plant injury at 125 g/ha,corn (Zea mays); [20],0%
same,plant injury at 31 g/ha,corn (Zea mays); [21],0%
same,pest or weed control at 125 g/ha,[11]; [20],20%
same,pest or weed control at 31 g/ha,[11]; [21],0%
same,pest or weed control at 125 g/ha,[12]; [20],0%
same,pest or weed control at 31 g/ha,[12]; [21],0%
same,pest or weed control at 125 g/ha,[13]; [20],0%
same,pest or weed control at 31 g/ha,[13]; [21],0%
same,pest or weed control at 125 g/ha,[14]; [20],0%
same,pest or weed control at 31 g/ha,[14]; [21],0%
same,plant injury at 125 g/ha,[15]; [20],0%
same,plant injury at 31 g/ha,[15]; [21],0%
same,pest or weed control at 250 g/ha,[16],55%
same,pest or weed control at 250 g/ha,[17],90%
same,pest or weed control at 250 g/ha,rice (Oryra sativa),40%
same,pest or weed control at 250 g/ha,[18],0%
